The record followed here is PubChem BioAssay AID651630 (Sanford-Burnham Center for Chemical Genomics, 2012).

pIC50: −log10 of the molar value. The source made the active and inactive calls.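 How the source made its calls: active means lipid-stain IC50 at or below a set limit, with nuclear-stain toxicity IC50 at least five times higher; inactive means the rest.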

Assay [1] has as its system TAG. Kind of assay: triacylglycerol accumulation inhibitor potency, dose response, cell-based, panel, Nile Red and DAPI fluorescence, H9c2 (AID 651630).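 Further: cells exposed to compound overnight before fixation and staining.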 The conditions noted are these: H9c2 cells, Nile Red TAG fluorescence, oleic acid.
Assay [2] relates to DAPI. Described as above. The note with it: H9c2 cells, DAPI nuclear fluorescence (cytotoxicity counter-readout), oleic acid.

Consider `O=C(N/N=C/c1cn(-c2ccccc2)nc1-c1cc2ccccc2o1)c1c[nH]c2ccccc12`, for which the pIC50 in assay [1] (mean of runs) is 4.88; in assay [1] (run 1) it was 4.83; in assay [1] (run 2), 4.94. Also, the values for the IC50 cytotoxicity (DAPI nuclear signal decrease) in assay [2] (mean of runs), in assay [2] (run 1) and in assay [2] (run 2) were > 25 µM (inactive), above 25 µM and above 25 µM, respectively.
On to `CC(C)C[C@H]1CNC(=S)N1CC1CCCN1C[C@H](CC(C)C)N1C[C@H](CC(C)C)N(CC2CCCCCC2)C1=S` (stereo partly drawn), for which the IC50 in assay [1] (mean of runs) was > 25 µM (inactive). Also, the negative logarithm of the IC50 (pIC50) in assay [1] (run 1) and in assay [1] (run 2) was below 4.60 throughout. Besides, the IC50 cytotoxicity (DAPI nuclear signal decrease) is > 25 µM (inactive) in assay [2] (mean of runs), above 25 µM in assay [2] (run 1) and above 25 µM in assay [2] (run 2).
Regarding `COC(=O)C1=C(C)N(Cc2ccccc2)C(=NCc2ccccc2)N[C@H]1c1ccccc1`, the IC50 in assay [1] (mean of runs) was > 25 µM (inactive). The negative-log IC50 (pIC50) in assay [1] (run 1) and in assay [1] (run 2) was below 4.60 in each case. For the same compound, the IC50 cytotoxicity (DAPI nuclear signal decrease) was above 25 µM in assay [2] (run 1) and 18.2 µM in assay [2] (run 2).
Consider `Cc1ccc(NC(=O)CSc2nnc(C)c(=O)n2N)cc1Cl`, for which the pIC50 in assay [1] (run 1) is 4.62; in assay [1] (run 2), below 4.60. For the same compound, the IC50 cytotoxicity (DAPI nuclear signal decrease) in assay [2] (mean of runs) was > 25 µM (inactive); in assay [2] (run 1), above 25 µM; in assay [2] (run 2), above 25 µM.
As to `Cc1cc(N2CCOCC2)n2nc(C)c(-c3ccccc3)c2n1`, the results for the pIC50 in assay [1] (run 1) and in assay [1] (run 2) were 4.83 and below 4.60, respectively. Further, the IC50 cytotoxicity (DAPI nuclear signal decrease) was > 25 µM (inactive) in assay [2] (mean of runs), above 25 µM in assay [2] (run 1) and above 25 µM in assay [2] (run 2).
Turning to `C#CCN(C[C@H]1[C@H](OC(=O)NCCCCCC)[C@H](OC(=O)NCCCCCC)C[C@@H](C(=O)OC)[C@H]1C(=O)OC)S(=O)(=O)c1ccc(C)cc1`, the pIC50 in assay [1] (mean of runs) is 5.31; in assay [1] (run 1) it was 5.37; in assay [1] (run 2) it was 5.26. The IC50 cytotoxicity (DAPI nuclear signal decrease) in assay [2] (run 1) and in assay [2] (run 2) was above 25 µM in each case.
As to `CN(C)CCNC=C(C(=O)Nc1ccc(Cl)cc1Cl)C(=O)Nc1ccc(Cl)cc1Cl`, the pIC50 was 5.06 in assay [1] (mean of runs), 5.10 in assay [1] (run 1) and 5.03 in assay [1] (run 2). Also, the IC50 cytotoxicity (DAPI nuclear signal decrease) in assay [2] (run 1) was 20.8 µM; in assay [2] (run 2) it was above 25 µM.
Take `COc1ccc2sc(-c3ccc(N(C)C)cc3)c(C#CCO)c2c1`: the values for the pIC50 in assay [1] (mean of runs), in assay [1] (run 1) and in assay [1] (run 2) were 5.19, 5.17 and 5.21, respectively. For the same compound, the IC50 cytotoxicity (DAPI nuclear signal decrease) is > 25 µM (inactive) in assay [2] (mean of runs), above 25 µM in assay [2] (run 1) and above 25 µM in assay [2] (run 2).
Consider `COc1ccc(-c2cc(C(F)F)n3ncc(C(=O)Nc4cccc(S(=O)(=O)N5CCOCC5)c4)c3n2)cc1`, for which the pIC50 was 4.86 in assay [1] (mean of runs), 4.76 in assay [1] (run 1) and 4.98 in assay [1] (run 2). The IC50 cytotoxicity (DAPI nuclear signal decrease) in assay [2] (mean of runs) is > 25 µM (inactive); in assay [2] (run 1), above 25 µM; in assay [2] (run 2), above 25 µM.
`Cc1cc(NC(=O)CSc2nc3ccccc3c(=O)n2C2CCCC2)no1`: the pIC50 in assay [1] (mean of runs) is 5.04; in assay [1] (run 1), 5.14; in assay [1] (run 2) it was 4.95. The IC50 cytotoxicity (DAPI nuclear signal decrease) in assay [2] (mean of runs) is > 25 µM (inactive); in assay [2] (run 1) it was above 25 µM; in assay [2] (run 2) it was above 25 µM.
For the compound `O=C(Nc1ccc(-c2csc(Nc3cccc(C(F)(F)F)c3)n2)cc1)c1cccc(C(F)(F)F)c1`, the negative-log IC50 (pIC50) in assay [1] (mean of runs) was 5.19; in assay [1] (run 1), 5.23; in assay [1] (run 2) it was 5.16. For the same compound, the IC50 cytotoxicity (DAPI nuclear signal decrease) in assay [2] (mean of runs) was > 25 µM (inactive); in assay [2] (run 1), above 25 µM; in assay [2] (run 2), above 25 µM.
As to `O=C(CSc1nc(Nc2ccccc2)nc(N2CCOCC2)n1)N1CCCC1`, the negative-log IC50 (pIC50) in assay [1] (mean of runs) is 4.91; in assay [1] (run 1) it was 4.93; in assay [1] (run 2), 4.90. Moreover, the IC50 cytotoxicity (DAPI nuclear signal decrease) in assay [2] (run 1) was 22.1 µM; in assay [2] (run 2), above 25 µM.
As to `Cc1ccc(CN(C(=O)c2csnn2)C(C(=O)NC2CCCC2)c2ccc(C)o2)cc1` (stereo not drawn), the IC50 in assay [1] (mean of runs) was > 25 µM (inactive). For the same compound, the negative-log IC50 (pIC50) in assay [1] (run 1) and in assay [1] (run 2) was below 4.60 each time. The figures for the IC50 cytotoxicity (DAPI nuclear signal decrease) in assay [2] (mean of runs), in assay [2] (run 1) and in assay [2] (run 2) were > 25 µM (inactive), above 25 µM and above 25 µM, respectively.
Consider `Cc1noc(C)c1COc1cccc(C(=O)OCC(=O)N2CC(=O)Nc3ccccc32)c1`, for which, in assay [1] (mean of runs), the IC50 was 15.4 µM (inactive). Moreover, the figures for the negative logarithm of the IC50 (pIC50) in assay [1] (run 1) and in assay [1] (run 2) were 4.95 and 4.71, respectively. The IC50 cytotoxicity (DAPI nuclear signal decrease) in assay [2] (mean of runs) is > 25 µM (inactive); in assay [2] (run 1), above 25 µM; in assay [2] (run 2), above 25 µM.
As for `Fc1ccc(Oc2nc(-c3ccccn3)nc3ccccc23)cc1`, the IC50 in assay [1] (mean of runs) is > 25 µM (inactive). Besides, the pIC50 in assay [1] (run 1) and in assay [1] (run 2) was below 4.60 throughout. The IC50 cytotoxicity (DAPI nuclear signal decrease) in assay [2] (mean of runs) is > 25 µM (inactive); in assay [2] (run 1), above 25 µM; in assay [2] (run 2) it was above 25 µM.
Consider `CCC(C)(C)NC(=O)C(c1ccc(C)cc1)N(Cc1ccco1)C(=O)CCC(=O)Nc1nccs1` (stereo not drawn), for which the negative-log IC50 (pIC50) in assay [1] (mean of runs) is 5.17; in assay [1] (run 1), 5.32; in assay [1] (run 2) it was 5.05. Besides, the values for the IC50 cytotoxicity (DAPI nuclear signal decrease) in assay [2] (mean of runs), in assay [2] (run 1) and in assay [2] (run 2) were > 25 µM (inactive), above 25 µM and above 25 µM, respectively.
Regarding `CN=C1c2cc3cc(OC)ccc3n2CCN1Cc1ccccc1`, the pIC50 is 4.97 in assay [1] (mean of runs), 5.02 in assay [1] (run 1) and 4.93 in assay [1] (run 2). Moreover, the figures for the IC50 cytotoxicity (DAPI nuclear signal decrease) in assay [2] (mean of runs), in assay [2] (run 1) and in assay [2] (run 2) were > 25 µM (inactive), above 25 µM and above 25 µM, respectively.
Take `CCCCCOc1ccc(NC(=O)CSc2cccc3cccnc23)cc1`: the IC50 in assay [1] (mean of runs) is > 25 µM (inactive). The negative-log IC50 (pIC50) in assay [1] (run 1) and in assay [1] (run 2) was below 4.60 each time. Besides, the IC50 cytotoxicity (DAPI nuclear signal decrease) was > 25 µM (inactive) in assay [2] (mean of runs), above 25 µM in assay [2] (run 1) and above 25 µM in assay [2] (run 2).
Regarding `Cc1ccc(-n2nc(C)c3c(C)c(CCC(=O)Nc4ccc(CN5CCCC5)cc4)c(C)nc32)cc1`, the figures for the pIC50 in assay [1] (run 1) and in assay [1] (run 2) were 4.69 and below 4.60, respectively. In addition, the IC50 cytotoxicity (DAPI nuclear signal decrease) in assay [2] (mean of runs) was > 25 µM (inactive); in assay [2] (run 1), above 25 µM; in assay [2] (run 2) it was above 25 µM.
As for `CCOC(=O)c1sc2nc(CSc3ccccc3)nc(NCCN(C)C)c2c1C`, the pIC50 is 4.86 in assay [1] (mean of runs), 4.91 in assay [1] (run 1) and 4.83 in assay [1] (run 2). Also, the results for the IC50 cytotoxicity (DAPI nuclear signal decrease) in assay [2] (mean of runs), in assay [2] (run 1) and in assay [2] (run 2) were > 25 µM (inactive), above 25 µM and above 25 µM, respectively.
